Measurements as given in patent US20250367154A1, “FORMULATIONS FOR PROMOTING HYDRATION AND METHODS OF USE THEREOF” (UNIVERSITY OF FLORIDA RESEARCH FOUNDATION, INCORPORATED, priority 2020, published 2025).
“Also recorded” adds a separate entry of the source.

Tested on: Small intestinal mucosal tissues (ileum and jejunum)
Experiment: Ussing chamber sodium flux (net Na absorption, 22Na)
Parameters: species or system Swiss mice
Settings: single free amino acid in solution, FIG. 4
Experimental: Sodium (Na) Absorption Studies: measure net fluid and electrolyte absorption, wherein absorptive processes occur predominantly in the tip of the villi and secretory processes occur in the crypt. Na absorption studies were performed on certain of the amino acids present in 6AA-Hyd. […] Small intestinal mucosal tissues (ileum and jejunum) from 8-week old male Swiss mice were mounted in Ussing chambers containing isotonic Ringer solution, that was bubbled with 95% O2 and 5% CO2 and maintained at 37° C. throughout the experiment. After the tissues were allowed to stabilize, the conductance (G; expressed as mS/cm2) was recorded, and intestinal tissues were paired based on similar conductance. Sodium radioisotope (22Na) was added to either the basolateral or apical side of each tissue pair (Hot). Ringer samples were taken every 15 minutes from the contralateral sides (Cold). Sample 22Na activity was analyzed using a gamma counter, and unidirectional net sodium flux (Jnet; μeq·cm2·h−1) was calculated. [formula] [CPM=count per minute, CPM1=previous sample, CPM2=following sample; Blank=no 22Na added; 9/10=dilution factor for each sample (0.5 mL to 5 mL); 5=chamber volume (5 mL); 4=time factor (15 min to 60 min); 140=sodium concentration; Hot CPM=“Hot” sample activity; Cold CPM=“Cold” sample activity; 10=volume factor for Hot sample (0.1 mL to 1 mL); 0.3=intestinal surface area (cm2)]

| SMILES | net sodium (Na) absorption relative to control solution |
| --- | --- |
| N[C@@H](CC(=O)O)C(=O)O [aspartic acid] | increase net Na absorption relative to a control; also recorded: significantly higher than that of control solution |
| N[C@@H](CO)C(=O)O [serine] | increase net Na absorption relative to a control; also recorded: significantly higher than that of control solution |
| CC(C)[C@H](N)C(=O)O [valine] | increase net Na absorption relative to a control; also recorded: significantly higher than that of control solution |
